Values of other authors as cited in US20040087484A1, “Combination of organic compounds” (priority 2003, published 2004).

Test system: male rats
Conditions: used for the treatment of hypertensive disorder in male rats

CCCCc1nc(Cl)c(CO)n1Cc1ccc(-c2ccccc2-c2nn[nH]n2)cc1 [losartan]
preservation of sexual function: advantage in preservation of sexual function
